In patent US6664411B2, “Heterocyclic compounds and their use in medicine; process for their preparation and pharmaceutical compositions containing them” (Dr. Reddy's Laboratories Limited, priority 1997, dated 2003):

Assays:
hPPARα = biological target: T1, hPPARα (Homo sapiens, UniProt Q07869); assay: Determination of hPPARα activity (GAL4 fusion luciferase reporter, HEK-293 cells); format: cell-based; conditions: Concentration 50 μM
T1 construct: expressed in transfected cells; host or cells: HEK-293
T1 sequence (Q07869 239-466 limits assumed): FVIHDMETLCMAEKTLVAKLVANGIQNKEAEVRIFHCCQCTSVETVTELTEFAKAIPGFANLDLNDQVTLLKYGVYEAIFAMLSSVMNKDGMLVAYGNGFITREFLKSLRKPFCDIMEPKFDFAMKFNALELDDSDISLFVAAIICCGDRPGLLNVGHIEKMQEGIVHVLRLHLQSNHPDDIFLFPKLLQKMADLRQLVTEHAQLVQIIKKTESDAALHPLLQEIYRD
Procedure: Ligand binding domain of hPPARα was fused to DNA binding domain of Yeast transcription factor GAL4 in eucaryotic expression vector. Using superfect (Qiagen, Germany) as transfecting reagent HEK-293 cells were transfected with this plasmid and a reporter plasmid harboring the luciferase gene driven by a GALA specific promoter. Compound was added at different concentrations after 42 hrs of transfection and incubated overnight. Luciferase activity as a function of compound binding/activation capacity of PPARα was measured using Packard Luclite kit (Packard, USA) in Top Count (Ivan Sadowski, Brendan Bell, Peter Broag and Melvyn Hollis. Gene. 1992. 118: 137-141; Superfect Transfection Reagent Handbook. February, 1997. Qiagen, Germany).

[1] = system: hypercholesterolemic Sprague Dawley rats; assay: Cholesterol lowering activity in hypercholesterolemic rat models; format: in vivo; conditions: for LDL↓ (%): LDL calculated; for VLDL↓ (%): VLDL calculated
Procedure: Male Sprague Dawley rats (NIN stock) were bred in DRF animal house. Animals were maintained under 12 hour light and dark cycle at 25±1° C. Rats of 180-200 gram body weight range were used for the experiment. Animals were made hypercholesterolemic by feeding 2% cholesterol and 1% sodium cholate mixed with standard laboratory chow [National Institute of Nutrition (NIN), Hyderabad, India] for 6 days. Throughout the experimental period the animals were maintained on the same diet (Petit, D., Bonnefis, M. T., Rey, C and Infante, R. Effects of ciprofibrate on liver lipids and lipoprotein synthesis in normo- and hyperlipidemic rats. Atherosclerosis. 1988. 74: 215-225).
The test compounds were administered orally at a dose 0.1 to 30 mg/kg/day for 3 days. Control group was treated with vehicle alone (0.25% Carboxymethylcellulose; dose 10 ml/kg).
The blood samples were collected in fed state 1 hour after drug administration on 0 and 3 day of compound treatment. The blood was collected from the retro-orbital sinus through heparinised capillary in EDTA containing tubes. After centrifugation, plasma sample was separated for total cholesterol, HDL and triglyceride estimations. Measurement of plasma triglyceride, total cholesterol and HDL were done using commercial kits (Dr. Reddy's Laboratory, Diagnostic Division, India). LDL and VLDL cholesterol were calculated from the data obtained for total cholesterol, HDL and triglyceride. The reduction of various parameters examined are calculated according to the formula.
(§1) 1. Percent reduction in Blood sugar/triglycerides/total cholesterol were calculated according to the formula: [formula]
2. LDL and VLDL cholesterol levels were calculated according to the formula: [formula]
VLDL cholesterol in mg/dl=[Total cholesterol−HDL cholesterol−LDL cholesterol] mg/dl

hPPARγ1 = biological target: T2, hPPARγ1 (Homo sapiens, UniProt P37231); assay: Determination of hPPARγ activity (GAL4 fusion luciferase reporter, HEK-293 cells); format: cell-based; conditions: Concentration 1 μM
T2 construct: expressed in transfected cells; host or cells: HEK-293
T2 sequence (P37231 238-503 limits assumed): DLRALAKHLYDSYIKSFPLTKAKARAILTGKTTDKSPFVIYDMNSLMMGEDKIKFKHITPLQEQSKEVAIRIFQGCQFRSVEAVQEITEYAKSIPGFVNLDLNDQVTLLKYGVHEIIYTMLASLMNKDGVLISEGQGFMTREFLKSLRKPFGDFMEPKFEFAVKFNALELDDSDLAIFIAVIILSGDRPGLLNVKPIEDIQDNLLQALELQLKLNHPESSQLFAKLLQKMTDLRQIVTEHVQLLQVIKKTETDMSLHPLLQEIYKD
Procedure: Ligand binding domain of hPPARγ1 was fused to DNA binding domain of Yeast transcription factor GAL4 in eucaryotic expression vector. Using lipofectamine (Gibco BRL, USA) as transfecting reagent HEK-293 cells were transfected with this plasmid and a reporter plasmid harboring the luciferase gene driven by a GAL4 specific promoter. Compound was added at 1 μM concentration after 48 hrs of transfection and incubated overnight. Luciferase activity as a function of drug binding/activation capacity of PPARγ was measured using Packard Luclite kit (Packard, USA) in Packard Top Count (Ivan Sadowski, Brendan Bell, Peter Broag and Melvyn Hollis. Gene. 1992. 118:137-141; Guide to Eukaryotic Transfections with Cationic Lipid Reagents. Life Technologies, GIBCO BRL, USA).

C57BL/KsJ-db/db mice = assay: Efficacy in genetic models: blood sugar and triglyceride lowering in db/db mice; format: in vivo; conditions: 3 mg/kg oral gavage daily for 6 days
From the text: Mutation in colonies of laboratory animals and different sensitivities to dietary regimens have made the development of animal models with non-insulin dependent diabetes and hyperlipidemia associated with obesity and insulin resistance possible. Genetic models such as db/db and ob/ob (Diabetes, (1982) 31(1):1-6) mice and zucker fa/fa rats have been developed by the various laboratories for understanding the pathophysiology of disease and testing the efficacy of new antidiabetic compounds (Diabetes, (1983) 32:830-838; Annu. Rep. Sankyo Res. Lab. (1994). 46:1-57). The homozygous animals, C57 BL/KsJ-db/db mice developed by Jackson Laboratory, US, are obese, hyperglycemic, hyperinsulinemic and insulin resistant (J. Clin. Invest., (1990) 85:962-967), whereas heterozygous are lean and normoglycemic. In db/db model, mouse progressively develops insulinopenia with age, a feature commonly observed in late stages of human type II diabetes when blood sugar levels are insufficiently controlled. The state of pancreas and its course vary according to the models. Since this model resembles that of type II diabetes mellitus, the compounds of the present invention were tested for blood sugar and triglycerides lowering activities.
Male C57BL/KsJ-db/db mice of 8 to 14 weeks age, having body weight range of 35 to 60 grams, bred at Dr. Reddy's Research Foundation (DRF) animal house, were used in the experiment. The mice were provided with standard feed (National Institute of Nutrition (NIN), Hyderabad, India) and acidified water, ad libitum. The animals having more than 350 mg/dl blood sugar were used for testing. The number of animals in each group was 4.
Test compounds were suspended on 0.25% carboxymethyl cellulose and administered to test group at a dose of 0.001 mg to 30 mg/kg through oral gavage daily for 6 days. The control group received vehicle (dose 10 ml/kg). On 6th day the blood samples were collected one hour after administration of test compounds/vehicle for assessing the biological activity.
The random blood sugar and triglyceride levels were measured by collecting blood (100 μl) through orbital sinus, using heparinised capillary in tubes containing EDTA which was centrifuged to obtain plasma. The plasma glucose and triglyceride levels were measured spectrometrically, by glucose oxidase and glycerol-3-PO4 oxidase/peroxidase enzyme (Dr. Reddy's Lab. Diagnostic Division Kits, Hyderabad, India) methods respectively.
The blood sugar and triglycerides lowering activities of the test compound was calculated according to the formula described below.
as §1

[2] = system: Swiss albino mice and Guinea pigs; assay: Plasma triglyceride and total cholesterol lowering activity in Swiss albino mice and Guinea pigs; format: in vivo; conditions: 3 mg/kg orally for 6 days; species of the table not stated (Swiss albino mice or Guinea pigs)
Procedure: Male Swiss albino mice (SAM) and male Guinea pigs were obtained from NIN and housed in DRF animal house. All these animals were maintained under 12 hour light and dark cycle at 25±1° C. Animals were given standard laboratory chow (NIN, Hyderabad, India) and water, ad libitum. SAM of 20-25 g body weight range and Guinea pigs of 500-700 g body weight range were used (Oliver, P., Plancke, M. O., Marzin, D., Clavey, V., Sauzieres, J and Fruchart, J. C. Effects of fenofibrate, gemfibrozil and nicotinic acid on plasma lipoprotein levels in normal and hyperlipidemic mice. Atherosclerosis. 1988. 70:107-114).
The test compounds were administered orally to Swiss albino mice at 0.3 to 30 mg/kg/day dose for 6 days. Control mice were treated with vehicle (0.25% Carboxymethylcellulose; dose 10 ml/kg). The test compounds were administered orally to Guinea pigs at 0.3 to 30 mg/kg/day dose for 6 days. Control animals were treated with vehicle (0.25% Carboxymethylcellulose; dose 5 ml/kg).
The blood samples were collected in fed state 1 hour after drug administration on 0 and 6 day of treatment. The blood was collected from the retro-orbital sinus through heparinised capillary in EDTA containing tubes. After centrifugation, plasma sample was separated for triglyceride and total cholesterol (Wieland, O. Methods of Enzymatic analysis. Bergermeyer, H. O., Ed., 1963. 211-214; Trinder, P. Ann. Clin. Biochem. 1969. 6:24-27). Measurement of plasma triglyceride, total cholesterol and HDL were done using commercial kits (Dr. Reddy's Diagnostic Division, Hyderabad, India).
as §1

## CCOC(Cc1ccc(OCCN2COc3ccccc3C2=O)cc1)C(=O)O (racemic) [Example 3, (±) 2-Ethoxy-3-[4-[2-[4-oxo-3,4-dihydro-1,3-benzoxazin-3-yl]ethoxy]phenyl]propanoic Acid]
hPPARα
  PPARα: 7
[1]; 0.3 mg/kg orally for 3 days
  HDL↑ (%): 110%
  Total Cholesterol (%)↓: 64%
  Triglyceride (%)↓: 62%
  LDL↓ (%): 74%
  VLDL↓ (%): 50%
hPPARγ1
  PPARγ: 11

## CCOC(Cc1ccc(OCCN2COc3ccccc3C2=O)cc1)C(=O)[O-].[Na+] (racemic) [Example 4, (±)-Sodium 2-ethoxy-3-[4-[2-[4-oxo-3,4-dihydro-1,3-benzoxazin-3-yl]ethoxy]phenyl]propanoate]
[1]; 3 mg/kg orally for 3 days
  HDL↑ (%): 256%
  Total Cholesterol (%)↓: 64%
  Triglyceride (%)↓: 61%
  LDL↓ (%): 76%
  VLDL↓ (%): 67%

## CCOC(Cc1ccc(OCC2NC(=O)c3ccccc3O2)cc1)C(=O)O (racemic) [Example 14, (±)-2-Ethoxy-3-[4-[[4-oxo-3,4-dihydro 1,3-benzoxazin-2-yl]methoxy]phenyl]propanoic Acid]
C57BL/KsJ-db/db mice
  Reduction in Blood Glucose Level (%): 55%
  Triglyceride Lowering (%): 46%

## CCOC(Cc1ccc(OCC2NC(=O)c3ccccc3N2)cc1)C(=O)O (racemic) [Example 16, (±)-2-Ethoxy-3-[4-[[4-oxo-1,2,3,4-tetrahydro-2-quinazolinyl]methoxy]phenyl]propanoic Acid]
C57BL/KsJ-db/db mice
  Reduction in Blood Glucose Level (%): 18%
  Triglyceride Lowering (%): 13%

## CCOC(Cc1ccc(OCC2NC(=O)c3cc(Cl)ccc3N2)cc1)C(=O)O (racemic) [Example 18, (±)-2-Ethoxy-3-[4-[[6-chloro-4-oxo-1,2,3,4-tetrahydro-2-quinazolinyl]methoxy]phenyl]propanoic Acid]
[2]
  Triglyceride (%)↓: 63%

## CCOC(Cc1ccc(OCC2Nc3ccccc3C(=O)N2C)cc1)C(=O)OC (racemic) [Example 19, (±)-Methyl 2-ethoxy-3-[4-[[3-methyl-4-oxo-1,2,3,4-tetrahydro-2-quinazolinyl]methoxy]phenyl]propanoate]
C57BL/KsJ-db/db mice
  Reduction in Blood Glucose Level (%): 31%
  Triglyceride Lowering (%): 62%
[2]
  Triglyceride (%)↓: 51%

## CCOC(Cc1ccc(OCCN2COc3ccccc3C2=O)cc1)C(=O)NC(CO)c1ccccc1 (stereo not shown) [Example 7]
[2]
  Triglyceride (%)↓: 61%

## CCOC(Cc1ccc(OCCN2COc3ccccc3C2=O)cc1)C(=O)NC(CO)c1ccccc1 [Example 7a, [2R, N(1S)] 2-Ethoxy-3-[4-[2-[4-oxo-3,4-dihydro-1,3-benzoxazin-3-yl]ethoxy]phenyl]-N-(2-hydroxy-1-phenylethyl)propanamide]
other
  melting point: 64 to 68 °C
